{"source": "patent US10851093B2", "about": "“Tyrosine kinase inhibitors” (Rigel Pharmaceuticals, Inc., priority 2018, dated 2020)", "key": {"Axl": {"biological_target": "T1, Axl (Homo sapiens, UniProt P30530)", "T1 construct": "Seed HUVECs (10K cells/well) in EBM-2 complete media; host or cells: HUVEC", "T1 sequence (P30530 26-894)": "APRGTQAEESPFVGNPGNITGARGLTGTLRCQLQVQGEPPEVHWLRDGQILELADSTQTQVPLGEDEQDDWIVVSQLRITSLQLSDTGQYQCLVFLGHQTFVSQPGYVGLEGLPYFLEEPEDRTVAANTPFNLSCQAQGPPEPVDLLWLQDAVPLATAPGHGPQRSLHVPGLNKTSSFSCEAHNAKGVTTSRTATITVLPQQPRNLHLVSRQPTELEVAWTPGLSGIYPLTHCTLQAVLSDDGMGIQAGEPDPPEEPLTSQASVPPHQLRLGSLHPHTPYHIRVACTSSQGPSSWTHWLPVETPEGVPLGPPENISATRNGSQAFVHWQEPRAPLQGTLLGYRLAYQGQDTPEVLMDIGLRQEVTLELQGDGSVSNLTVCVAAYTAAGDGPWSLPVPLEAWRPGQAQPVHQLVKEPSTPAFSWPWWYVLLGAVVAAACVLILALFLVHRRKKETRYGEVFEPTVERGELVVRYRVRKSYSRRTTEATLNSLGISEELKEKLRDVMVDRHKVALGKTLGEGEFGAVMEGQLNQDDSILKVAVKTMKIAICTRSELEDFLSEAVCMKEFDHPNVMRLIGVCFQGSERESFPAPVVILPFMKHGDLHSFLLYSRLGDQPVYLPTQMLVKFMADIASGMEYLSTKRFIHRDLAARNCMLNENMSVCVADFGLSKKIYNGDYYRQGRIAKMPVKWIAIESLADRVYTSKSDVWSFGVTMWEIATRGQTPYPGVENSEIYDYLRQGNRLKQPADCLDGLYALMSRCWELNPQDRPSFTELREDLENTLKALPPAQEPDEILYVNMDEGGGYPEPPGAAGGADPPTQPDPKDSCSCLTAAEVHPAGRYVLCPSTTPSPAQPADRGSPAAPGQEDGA", "test": "Phospho-AKT HTRF, HUVEC, Axl ABX-L, 8 pt", "assay_type": "cell-based", "conditions": "HUVEC cells, pAkt(Ser473) HTRF, Axl ABX-L stimulation", "method": "[The source words this procedure for another target and reports this target under the same test.] (§1) Example 13: PAKT HTRF-HUVEC Assay\n(§2) Seed HUVECs (10K cells/well) in EBM-2 complete media (EBM-2 basal medium plus EGM-2 BulletKit supplements) overnight at 37° C., 5% CO2 in Costar 96-well white clear-bottom plates. Remove culture media and starve cells for 3-4 hours in 50 μL/well EBM-2 basal medium. Perform serial dilution of compounds in DMSO from 2.5 mM in 4-fold dilutions, and then dilute 1:125 in EBM-2 basal media. Mix 50 μL/well 2× compounds with 50 μL/well HUVECs in duplicate in Costar 96-well white clear-bottom plates. Incubate plates for 1 hour at 37° C., 5% CO2. Cross-link anti-human MerTK antibody to Biotin-SP-conjugated anti-mouse IgG antibody (1:1) to give final concentrations of 5 μg/mL of anti-human MerTK-XL. Stimulate HUVECs with 25 μL/well 5× anti-human MerTK-XL to give final concentrations of 1 ug/mL for 10 minutes at 37° C., 5% CO2. Completely remove media and lyse HUVECs with 40 uL:WELL per well of Cisbio HTRF 1× lysis buffer. Performed pAkt(Ser473) HTRF assay in ProxiPlate-384 Plus, white 384-shallow well microplate according to the vendor protocol and read plates with a SpectralMax Paradigm plate reader. Enter the HTRF values into Athena (Rigel) for curve fitting, EC50 calculation, and database storage."}, "MerTK": {"biological_target": "T2, MerTK (Homo sapiens, UniProt Q12866)", "T2 construct": "Seed HUVECs (10K cells/well) in EBM-2 complete media; host or cells: HUVEC", "T2 sequence (Q12866 21-999)": "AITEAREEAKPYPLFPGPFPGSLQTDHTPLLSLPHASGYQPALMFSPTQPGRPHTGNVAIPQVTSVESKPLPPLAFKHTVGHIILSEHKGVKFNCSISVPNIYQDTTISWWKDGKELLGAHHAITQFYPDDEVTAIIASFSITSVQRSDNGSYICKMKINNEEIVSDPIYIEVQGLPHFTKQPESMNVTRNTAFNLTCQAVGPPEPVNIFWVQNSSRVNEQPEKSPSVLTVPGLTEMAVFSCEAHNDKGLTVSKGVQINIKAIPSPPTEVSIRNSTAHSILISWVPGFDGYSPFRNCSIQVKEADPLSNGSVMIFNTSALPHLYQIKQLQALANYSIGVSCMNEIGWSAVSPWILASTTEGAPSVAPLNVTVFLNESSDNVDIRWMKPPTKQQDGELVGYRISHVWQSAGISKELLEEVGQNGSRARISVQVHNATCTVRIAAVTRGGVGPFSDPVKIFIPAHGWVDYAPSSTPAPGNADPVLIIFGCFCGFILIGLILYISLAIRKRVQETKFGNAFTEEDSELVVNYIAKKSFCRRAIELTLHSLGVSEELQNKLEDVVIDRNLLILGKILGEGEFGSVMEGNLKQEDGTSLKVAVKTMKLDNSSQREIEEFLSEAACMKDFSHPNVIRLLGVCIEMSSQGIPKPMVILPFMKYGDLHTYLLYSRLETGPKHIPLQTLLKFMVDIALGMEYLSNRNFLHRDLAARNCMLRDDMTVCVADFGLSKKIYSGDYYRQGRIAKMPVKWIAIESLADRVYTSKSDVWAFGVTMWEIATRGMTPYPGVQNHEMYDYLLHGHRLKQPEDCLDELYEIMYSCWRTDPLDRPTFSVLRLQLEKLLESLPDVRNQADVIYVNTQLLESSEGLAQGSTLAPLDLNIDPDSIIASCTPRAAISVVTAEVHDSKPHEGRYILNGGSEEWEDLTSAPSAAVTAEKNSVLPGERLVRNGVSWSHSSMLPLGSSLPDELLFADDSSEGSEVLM", "test": "Phospho-AKT HTRF, HUVEC, Mer-XL, 8 pt (pAKT HTRF-HUVEC assay, anti-human MerTK-XL stimulation)", "assay_type": "cell-based", "conditions": "HUVEC cells, pAkt(Ser473) HTRF, anti-human MerTK-XL stimulation 1 ug/mL 10 minutes", "method": "as §1, §2"}}, "data": [{"smiles": "COc1cc2c(Oc3ccc(NC(=O)c4cc(N5CCN(C)CC5)ccn4)nc3)ccnc2cc1OCCCN1CCOCC1", "note": "[Compound 1, N-(5-((6-Methoxy-7-(3-morpholinopropoxy)quinolin-4-yl)oxy)pyridin-2-yl)-4-(4-methylpiperazin-1-yl)picolinamide]", "values": [{"measurement": "EC50", "setting": "Axl", "result": 403, "unit": "nM"}, {"measurement": "EC50", "setting": "MerTK", "result": 421, "unit": "nM"}]}, {"smiles": "COc1cc2c(Oc3ccc(NC(=O)c4cc(-c5ccccc5)c5c(n4)C4CCN5CC4)nc3)ccnc2cc1OCCCN1CCOCC1", "note": "[Compound 2, N-(5-((6-Methoxy-7-(3-morpholinopropoxy)quinolin-4-yl)oxy)pyridin-2-yl)-8-phenyl-3,4-dihydro-2H-1,4-ethano-1,5-naphthyridine-6-carboxamide]", "values": [{"measurement": "EC50", "setting": "Axl", "result": 40.8, "unit": "nM"}, {"measurement": "EC50", "setting": "MerTK", "result": 47, "unit": "nM"}]}, {"smiles": "COc1cc2c(Oc3ccc(NC(=O)c4cc(-c5ccccc5)ccn4)nc3)ccnc2cc1OCCCN1CCOCC1", "note": "[Compound 3, N-(5-((6-Methoxy-7-(3-morpholinopropoxy)quinolin-4-yl)oxy)pyridin-2-yl)-4-phenylpicolinamide]", "values": [{"measurement": "EC50", "setting": "Axl", "result": 162, "unit": "nM"}, {"measurement": "EC50", "setting": "MerTK", "result": 98.7, "unit": "nM"}]}, {"smiles": "COc1cc2c(Oc3ccc(NC(=O)c4nccc(-c5ccccc5)n4)nc3)ccnc2cc1OCCCN1CCOCC1", "note": "[Compound 4, N-(5-((6-Methoxy-7-(3-morpholinopropoxy)quinolin-4-yl)oxy)pyridin-2-yl)-4-phenylpyrimidine-2-carboxamide]", "values": [{"measurement": "EC50", "setting": "Axl", "result": 5, "unit": "nM"}, {"measurement": "EC50", "setting": "MerTK", "result": 3.9, "unit": "nM"}]}, {"smiles": "COc1cc2c(Oc3ccc(NC(=O)c4nc(-c5ccccc5)c5ccccc5n4)nc3)ccnc2cc1OCCCN1CCOCC1", "note": "[Compound 5, N-(5-((6-Methoxy-7-(3-morpholinopropoxy)quinolin-4-yl)oxy)pyridin-2-yl)-4-phenylquinazoline-2-carboxamide]", "values": [{"measurement": "EC50", "setting": "Axl", "result": 1.4, "unit": "nM"}, {"measurement": "EC50", "setting": "MerTK", "result": 2.2, "unit": "nM"}]}, {"smiles": "COc1cc2c(Oc3ccc(NC(=O)c4nc(-c5ccccc5)c5c(n4)C4CCN5CC4)nc3)ccnc2cc1OCCCN1CCOCC1", "note": "[Compound 6, N-(5-((6-methoxy-7-(3-morpholinopropoxy)quinolin-4-yl)oxy)pyridin-2-yl)-4-phenyl-7,8-dihydro-6H-5,8-ethanopyrido[3,2-d]pyrimidine-2-carboxamide, hydrochloric acid]", "values": [{"measurement": "EC50", "setting": "Axl", "result": 3.3, "unit": "nM"}, {"measurement": "EC50", "setting": "MerTK", "result": 2.5, "unit": "nM"}]}, {"smiles": "COc1cc2c(Oc3ccc(NC(=O)c4cc(-c5ccccc5)c5c(n4)C4CCN5CC4)nc3)ccnc2cc1OCCCN1CCOCC1", "note": "[Compound 7, N-(5-((6-Methoxy-7-(3-morpholinopropoxy)quinolin-4-yl)oxy)pyridin-2-yl)-8-phenyl-3,4-dihydro-2H-1,4-ethano-1,5-naphthyridine-6-carboxamide, hydrochloric acid]", "values": [{"measurement": "EC50", "setting": "Axl", "result": 18.2, "unit": "nM"}, {"measurement": "EC50", "setting": "MerTK", "result": 10, "unit": "nM"}]}, {"smiles": "COc1cc2c(Oc3ccc(NC(=O)c4cc(N5CCC(O)CC5)ccn4)nc3)ccnc2cc1OCCCN1CCOCC1", "note": "[Compound 8, 4-(4-Hydroxypiperidin-1-yl)-N-(5-((6-methoxy-7-(3-morpholino-propoxy)quinolin-4-yl)oxy)pyridin-2-yl)picolinamide, trifluoroacetic acid]", "values": [{"measurement": "EC50", "setting": "Axl", "result": 228, "unit": "nM"}, {"measurement": "EC50", "setting": "MerTK", "result": 90.9, "unit": "nM"}]}, {"smiles": "COc1cc2c(Oc3ccc(NC(=O)c4nc5ccccc5c(=O)[nH]4)nc3)ccnc2cc1OCCCN1CCOCC1", "note": "[Compound 9, N-(5-((6-Methoxy-7-(3-morpholinopropoxy)quinolin-4-yl)oxy)pyridin-2-yl)-4-oxo-3,4-dihydroquinazoline-2-carboxamide, trifluoroacetic acid]", "values": [{"measurement": "EC50", "setting": "Axl", "result": 71.7, "unit": "nM"}, {"measurement": "EC50", "setting": "MerTK", "result": 42.7, "unit": "nM"}]}, {"smiles": "COc1cc2c(Oc3ccc(NC(=O)c4cccc(-c5ccccc5)n4)nc3)ccnc2cc1OCCCN1CCOCC1", "note": "[Compound 10, N-(5-((6-Methoxy-7-(3-morpholinopropoxy)quinolin-4-yl)oxy)pyridin-2-yl)-6-phenylpicolinamide]", "values": [{"measurement": "EC50", "setting": "Axl", "result": 12.9, "unit": "nM"}, {"measurement": "EC50", "setting": "MerTK", "result": 4.9, "unit": "nM"}]}, {"smiles": "COc1cc2c(Oc3ccc(NC(=O)c4cc(N5CCC(O)CC5)ccn4)nc3)ccnc2cc1OCCCN1CCOCC1", "note": "[Compound 11, 4-(4-Hydroxypiperidin-1-yl)-N-(5-((6-methoxy-7-(3-morpholino-propoxy)quinolin-4-yl)oxy)pyridin-2-yl)picolinamide]", "values": [{"measurement": "EC50", "setting": "Axl", "result": 197, "unit": "nM"}, {"measurement": "EC50", "setting": "MerTK", "result": 86, "unit": "nM"}]}, {"smiles": "COc1cc2c(Oc3ccc(NC(=O)c4nc5ccccc5c(=O)[nH]4)nc3)ccnc2cc1OCCCN1CCOCC1", "note": "[Compound 12, N-(5-((6-Methoxy-7-(3-morpholinopropoxy)quinolin-4-yl)oxy)pyridin-2-yl)-4-oxo-3,4-dihydroquinazoline-2-carboxamide]", "values": [{"measurement": "EC50", "setting": "Axl", "result": 99.4, "unit": "nM"}, {"measurement": "EC50", "setting": "MerTK", "result": 72.1, "unit": "nM"}]}, {"smiles": "COc1cc2c(Oc3ccc(NC(=O)c4cc(N5CCCCC5)ccn4)nc3)ccnc2cc1OCCCN1CCOCC1", "note": "[Compound 13, N-(5-((6-methoxy-7-(3-morpholinopropoxy)quinolin-4-yl)oxy)pyridin-2-yl)-4-(piperidin-1-yl)picolinamide]", "values": [{"measurement": "EC50", "setting": "Axl", "result": 53.8, "unit": "nM"}, {"measurement": "EC50", "setting": "MerTK", "result": 20.2, "unit": "nM"}]}, {"smiles": "COc1cc2c(Oc3ccc(NC(=O)c4cc(N5CCOCC5)ccn4)nc3)ccnc2cc1OCCCN1CCOCC1", "note": "[Compound 14, N-(5-((6-methoxy-7-(3-morpholinopropoxy)quinolin-4-yl)oxy)pyridin-2-yl)-4-morpholinopicolinamide]", "values": [{"measurement": "EC50", "setting": "Axl", "result": 805, "unit": "nM"}, {"measurement": "EC50", "setting": "MerTK", "result": 430, "unit": "nM"}]}, {"smiles": "CCOC1CCN(c2ccnc(C(=O)Nc3ccc(Oc4ccnc5cc(OCCCN6CCOCC6)c(OC)cc45)cn3)c2)CC1", "note": "[Compound 15, 4-(4-ethoxypiperidin-1-yl)-N-(5-((6-methoxy-7-(3-morpholinopropoxy)quinolin-4-yl)oxy)pyridin-2-yl)picolinamide]", "values": [{"measurement": "EC50", "setting": "Axl", "result": 257, "unit": "nM"}, {"measurement": "EC50", "setting": "MerTK", "result": 204, "unit": "nM"}]}, {"smiles": "COc1cc2c(Oc3ccc(NC(=O)c4cc(N5CCCC5)ccn4)nc3)ccnc2cc1OCCCN1CCOCC1", "note": "[Compound 16, N-(5-((6-methoxy-7-(3-morpholinopropoxy)quinolin-4-yl)oxy)pyridin-2-yl)-4-(pyrrolidin-1-yl)picolinamide]", "values": [{"measurement": "EC50", "setting": "Axl", "result": 43.2, "unit": "nM"}, {"measurement": "EC50", "setting": "MerTK", "result": 27.9, "unit": "nM"}]}, {"smiles": "COc1cc2c(Oc3ccc(NC(=O)c4cc(N5CCC(c6ccccc6)CC5)ccn4)nc3)ccnc2cc1OCCCN1CCOCC1", "note": "[Compound 17, N-(5-((6-methoxy-7-(3-morpholinopropoxy)quinolin-4-yl)oxy)pyridin-2-yl)-4-(4-phenylpiperidin-1-yl)picolinamide]", "values": [{"measurement": "EC50", "setting": "Axl", "result": 1370, "unit": "nM"}, {"measurement": "EC50", "setting": "MerTK", "result": 1640, "unit": "nM"}]}]}
